According to patent US10526323B2, “Indazole and azaindazole substituted compounds as mGluR4 allosteric potentiators, compositions, and methods of treating neurological dysfunction” (Vanderbilt University, priority 2015, dated 2020):

Target: mGluR4 (UniProt Q14833)
Assay: mGluR4 potentiation assay: increase in response to an EC20 concentration of agonist (species not given)
Type: cell-based
Details: EC50 for potentiation of mGluR4; table does not state human or rat
In short: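 Human mGluR4 was expressed in CHO cells read with a Ca2+-sensitive dye; rat mGluR4 was co-expressed with GIRK in […] read by thallium flux. Potentiation is the rise over agonist-alone response, with EC50 and maximal potentiation from non-linear fits.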

Row | EC50 [nM] | SMILES
1 | 2360 | Cn1nc(S(C)(=O)=O)c2ccc(Nc3n[nH]c4nccnc34)cc21 [Example 187, N-(1-methyl-3-(methylsulfonyl)-1H-indazol-6-yl)-1H-pyrazolo[3,4-b]pyrazin-3-amine]
2 | 25 | Cn1nc(C2(C)CC2)c2ccc(Nc3n[nH]c4nccnc34)cc21 [Example 29, N-(1-methyl-3-(1-methylcyclopropyl)-1H-indazol-6-yl)-1H-pyrazolo[3,4-b]pyrazin-3-amine]
3 | 125 | Cc1cc(Cn2ncc3cc(Nc4n[nH]c5cccnc45)ccc32)no1 [Example 103, N-(1-((5-methylisoxazol-3-yl)methyl)-1H-indazol-5-yl)-1H-pyrazolo[4,3-b]pyridin-3-amine]
4 | 629 | Cn1nc(OC2COC2)c2ccc(Nc3n[nH]c4cccnc34)cc21 [Example 216, N-[1-methyl-3-(oxetan-3-yloxy)indazol-6-yl]-1H-pyrazolo[4,3-b]pyridin-3-amine]
5 | 36 | Cc1nn(CC2CC2)c2ccc(Nc3n[nH]c4cccnc34)cc12 [Example 111, N-(1-(cyclopropylmethyl)-3-methyl-1H-indazol-5-yl)-1H-pyrazolo[4,3-b]pyridin-3-amine]
6 | 440 | Cc1nn(C2CCCCC2)c2ncc(Nc3n[nH]c4cccnc34)cc12 [Example 260, 1-cyclohexyl-3-methyl-N-(1H-pyrazolo[4,3-b]pyridin-3-yl)pyrazolo[3,4-b]pyridin-5-amine]
7 | > 10000 | CC(C)n1nc(C2CC2)c2ccc(Nc3n[nH]c4nccnc34)cc21 [Example 17, N-(3-cyclopropyl-1-isopropyl-1H-indazol-6-yl)-1H-pyrazolo[3,4-b]pyrazin-3-amine]
8 | 1300 | Cc1nnc(Cn2nc(C)c3cc(Nc4n[nH]c5cccnc45)ccc32)o1 [Example 129, N-(3-methyl-1-((5-methyl-1,3,4-oxadiazol-2-yl)methyl)-1H-indazol-5-yl)-1H-pyrazolo[4,3-b]pyridin-3-amine]
9 | 16 | Cn1ncc2c(Cl)cc(Nc3n[nH]c4nccnc34)cc21 [Example 8, N-(4-chloro-1-methyl-1H-indazol-6-yl)-1H-pyrazolo[3,4-b]pyrazin-3-amine]
10 | > 30000 | Cc1nn(C)c2ncc(Nc3n[nH]c4cccnc34)cc12 [Example 268, N-(1,3-dimethyl-1H-pyrazolo[3,4-b]pyridin-5-yl)-1H-pyrazolo[4,3-b]pyridin-3-amine]
11 | 145 | Cc1cc(Cn2nc(C)c3cc(Nc4n[nH]c5nccnc45)ccc32)no1 [Example 69, N-(3-methyl-1-((5-methylisoxazol-3-yl)methyl)-1H-indazol-5-yl)-1H-pyrazolo[3,4-b]pyrazin-3-amine]
12 | 247 | COc1cc(Nc2n[nH]c3nccnc23)cc2c1cnn2C [Example 53, N-(4-methoxy-1-methyl-1H-indazol-6-yl)-1H-pyrazolo[3,4-b]pyrazin-3-amine]
13 | 815 | CCn1nc(Cl)c2cc(Nc3n[nH]c4cccnc34)ccc21 [Example 141, N-(3-chloro-1-ethyl-1H-indazol-5-yl)-1H-pyrazolo[4,3-b]pyridin-3-amine]
14 | > 10000 | Cc1cc(Cn2ncc3ncc(Nc4n[nH]c5nccnc45)cc32)no1 [Example 143, N-(1-((5-methylisoxazol-3-yl)methyl)-1H-pyrazolo[4,3-b]pyridin-6-yl)-1H-pyrazolo[3,4-b]pyrazin-3-amine]
15 | 525 | Cn1cc2c(Cl)cc(Nc3n[nH]c4cccnc34)cc2n1 [Example 3, N-(4-chloro-2-methyl-2H-indazol-6-yl)-1H-pyrazolo[4,3-b]pyridin-3-amine]
16 | 68 | Cn1nc(C2(C)CC2)c2ccc(Nc3n[nH]c4cccnc34)cc21 [Example 28, N-(1-methyl-3-(1-methylcyclopropyl)-1H-indazol-6-yl)-1H-pyrazolo[4,3-b]pyridin-3-amine]
17 | > 10000 | Cc1nn(C(C)C)c2cc(Nc3n[nH]c4ccccc34)ccc12 [Example 19, N-(1-isopropyl-3-methyl-1H-indazol-6-yl)-1H-indazol-3-amine]
18 | 903 | Cn1nc(C(=O)N2CC[C@@H](F)C2)c2ccc(Nc3n[nH]c4cccnc34)cc21 [Example 168, [(3R)-3-fluoropyrrolidin-1-yl]-[1-methyl-6-(1H-pyrazolo[4,3-b]pyridin-3-ylamino)indazol-3-yl]methanone]
19 | > 10000 | Cc1nn(C)c2ncc(Nc3n[nH]c4ccccc34)cc12 [Example 271, N-(1H-indazol-3-yl)-1,3-dimethyl-1H-pyrazolo[3,4-b]pyridin-5-amine]
20 | 104 | Cc1cc(COc2nn(C)c3cc(Nc4n[nH]c5cccnc45)ccc23)on1 [Example 45, N-(1-methyl-3-((3-methylisoxazol-5-yl)methoxy)-1H-indazol-6-yl)-1H-pyrazolo[4,3-b]pyridin-3-amine]
21 | 95 | Cc1nn(CC(C)C)c2ccc(Nc3n[nH]c4cccnc34)cc12 [Example 112, N-(1-isobutyl-3-methyl-1H-indazol-5-yl)-1H-pyrazolo[4,3-b]pyridin-3-amine]
22 | > 10000 | CC(C)n1nc(C2CC2)c2ccc(Nc3n[nH]c4cccnc34)cc21 [Example 16, N-(3-cyclopropyl-1-isopropyl-1H-indazol-6-yl)-1H-pyrazolo[4,3-b]pyridin-3-amine]

Row | EC50 [nM] | SMILES
23 | 2430 | CCCCn1nc(Cl)c2cc(Nc3n[nH]c4cccnc34)ccc21 [Example 281, N-(1-butyl-3-chloro-1H-indazol-5-yl)-1H-pyrazolo[4,3-b]pyridin-3-amine]
24 | 258 | Cc1nn(CC2CC(C3CC3)=NO2)c2ccc(Nc3n[nH]c4cccnc34)cc12 (stereo not shown) [Example 100, N-(1-((3-cyclopropyl-4,5-dihydroisoxazol-5-yl)methyl)-3-methyl-1H-indazol-5-yl)-1H-pyrazolo[4,3-b]pyridin-3-amine]
25 | 4300 | c1cnc2c(Nc3cccc4c3cnn4CC3CCC3)n[nH]c2c1 [Example 34, N-(1-(cyclobutylmethyl)-1H-indazol-4-yl)-1H-pyrazolo[4,3-b]pyridin-3-amine]
26 | > 10000 | Clc1nn(CC2CC2)c2ccc(Nc3n[nH]c4cccnc34)cc12 [Example 284, N-(3-chloro-1-(cyclopropylmethyl)-1H-indazol-5-yl)-1H-pyrazolo[4,3-b]pyridin-3-amine]
27 | > 30000 | Cc1nn(C(C)C)c2ncc(Nc3n[nH]c4cccnc34)cc12 [Example 270, N-(1-isopropyl-3-methyl-1H-pyrazolo[3,4-b]pyridin-5-yl)-1H-pyrazolo[4,3-b]pyridin-3-amine]
28 | 200 | Cc1nn(C2CCC2)c2ncc(Nc3n[nH]c4cccnc34)cc12 [Example 158, 1-cyclobutyl-3-methyl-N-(1H-pyrazolo[4,3-b]pyridin-3-yl)pyrazolo[3,4-b]pyridin-5-amine]
29 | 253 | CCC(F)(F)Cn1nc(C)c2cc(Nc3n[nH]c4cccnc34)ccc21 [Example 136, N-(1-(2,2-difluorobutyl)-3-methyl-1H-indazol-5-yl)-1H-pyrazolo[4,3-b]pyridin-3-amine]
30 | 171 | CCCOc1nn(C)c2cc(Nc3n[nH]c4cccnc34)ccc12 [Example 239, N-(1-methyl-3-propoxy-1H-indazol-6-yl)-1H-pyrazolo[4,3-b]pyridin-3-amine]
31 | 295 | Cc1nn(CC(C)(C)C)c2ccc(Nc3n[nH]c4cccnc34)cc12 [Example 119, N-(3-methyl-1-neopentyl-1H-indazol-5-yl)-1H-pyrazolo[4,3-b]pyridin-3-amine]
32 | 1460 | Cc1nn(C2CCOCC2)c2ccc(Nc3n[nH]c4cccnc34)cc12 [Example 117, N-(3-methyl-1-(tetrahydro-2H-pyran-4-yl)-1H-indazol-5-yl)-1H-pyrazolo[4,3-b]pyridin-3-amine]
33 | 1530 | Cc1nn(Cc2ccc3ccccc3n2)c2ccc(Nc3n[nH]c4cccnc34)cc12 [Example 125, N-(3-methyl-1-(quinolin-2-ylmethyl)-1H-indazol-5-yl)-1H-pyrazolo[4,3-b]pyridin-3-amine]
34 | 36 | [2H]C([2H])([2H])n1nc(C2CC2)c2ccc(Nc3n[nH]c4cccnc34)cc21 [Example 23, N-(3-cyclopropyl-1-(methyl-d3)-1H-indazol-6-yl)-1H-pyrazolo[4,3-b]pyridin-3-amine]
35 | 794 | Cn1nc(C(=O)NC2CC(F)C2)c2ccc(Nc3n[nH]c4cccnc34)cc21 (stereo not shown) [Example 175, N-(3-fluorocyclobutyl)-1-methyl-6-(1H-pyrazolo[4,3-b]pyridin-3-ylamino)indazole-3-carboxamide]
36 | 43 | Cn1nc(C2CC2)c2ccc(Nc3n[nH]c4cccnc34)cc21 [Example 1, N-(3-cyclopropyl-1-methyl-1H-indazol-6-yl)-1H-pyrazolo[4,3-b]pyridin-3-amine]
37 | 83 | Cn1nc(OCc2cccnc2)c2ccc(Nc3n[nH]c4cccnc34)cc21 [Example 184, N-(1-methyl-3-(pyridin-3-ylmethoxy)-1H-indazol-6-yl)-1H-pyrazolo[4,3-b]pyridin-3-amine]
38 | > 10000 | c1cnc2c(Nc3cnc4cnn(CC5CCC5)c4c3)n[nH]c2n1 [Example 149, N-(1-(cyclobutylmethyl)-1H-pyrazolo[4,3-b]pyridin-6-yl)-1H-pyrazolo[3,4-b]pyrazin-3-amine]
39 | > 10000 | CCC(C)n1nc2ccc(Nc3n[nH]c4cccnc34)cc2c1C (stereo not shown) [Example 105, N-(2-(sec-butyl)-3-methyl-2H-indazol-5-yl)-1H-pyrazolo[4,3-b]pyridin-3-amine]
40 | 1980 | Clc1nn(CC2CCC2)c2ccc(Nc3n[nH]c4cccnc34)cc12 [Example 285, N-(3-chloro-1-(cyclobutylmethyl)-1H-indazol-5-yl)-1H-pyrazolo[4,3-b]pyridin-3-amine]
41 | 813 | Cc1n[nH]c2ccc(Nc3n[nH]c4cccnc34)cc12 [Example 79]
42 | 452 | c1cnc2c(Nc3ccc4c(C5CC5)n[nH]c4c3)n[nH]c2c1 [Example 247, N-(3-cyclopropyl-1H-indazol-6-yl)-1H-pyrazolo[4,3-b]pyridin-3-amine]
43 | > 10000 | Cn1nc(C(=O)N2CCC(C(N)=O)CC2)c2ccc(Nc3n[nH]c4cccnc34)cc21 [Example 161, 1-[1-methyl-6-(1H-pyrazolo[4,3-b]pyridin-3-ylamino)indazole-3-carbonyl]piperidine-4-carboxamide]
